Measured values published in PMC3049593 (British Journal of Cancer, 2011).

Columns and labels:
[1] = plasma pharmacokinetics of PG545 (LC-MS/MS) in LL/2 tumour-bearing mice; format: in vivo; settings: for AUC0−t / Cmax / Tmax / t½: plasma
Method: (Applied Biosystems) preceded by a Spark Symbiosis Direct On-line Solid Phase Extraction system. Briefly, using a deep-well 96-well plate, 100 µL plasma was mixed with 10 µL standard solution (or water for unknowns) plus 10 µL internal standard solution (PG562 at 100 µg/mL (deionised water for double blank)).This was then mixed for at least 1 min (Ratek Platform Shaker) and incubated at room temperature for 20 mins prior to addition of 25 µL SDS solution (10 mg SDS in 1 mL deionised water) + 75 µL CHAPS solution (50 mg CHAPS in 1 mL deionised water) and 50 µL Proteinase K solution (10 mg Proteinase K in 1 mL 5 mM CaCl2). Following a mixing step this was incubated at 37°C for 2.5 hours prior to addition of 250 µL deionised water and placed into the Spark Symbiosis system.
The Tmax and Cmax on each sampling day were determined for each dose level by visual inspection of the mean data. The AUC0-t was calculated using the trapezoidal method and the plasma concentration t½ was estimated based on linear regression of the natural log of the plasma concentration that constituted the terminal phase of the concentration-time

[2] = tested on: FGF2-induced vascularisation of AngioSponge; assay: AngioSponge in vivo angiogenesis model (CD31/PECAM-1 staining); set-up: species or system mice; settings: s.c. daily or twice-weekly, 10 days
Method: Angiogenesis in vivo was evaluated using the Angiosponge model in which subcutaneously implanted, agarose-captured FGF2 gelfoam sterile sponges (Pfizer, West Ryde, Australia) induces vascularisation over a 10-day period responsive to angiogenesis inhibition as determined by the number of vessels with identifiable lumen that stained positive for CD31/PECAM-1, an antigen present specifically on endothelial cells ([McCarty et al, 2002]). PG545 was administered s.c. on the flank distal to the AngioSponge implant. This method was also used to examine five medium-sized primary tumours from each group of Lewis Lung Carcinoma (LL/2)-bearing mice.
Cell lines, cell culture, reagents and compounds
Tumour cell lines were cultured in RPMI1640 or DMEM cell culture medium (Invitrogen, Mt Waverley, Australia), 10% foetal bovine serum (Invitrogen or Hyclone/Quantum Scientific), 100 IU/mL penicillin (Invitrogen), 100 µ g/mL streptomycin (Invitrogen or Sigma-Aldrich, Castle Hill, Australia). […]
staining. For quantification, three independent visual fields (20x magnification) were chosen and positive stained spots or vessels with identifiable lumen were counted.
Angiogenesis inhibition and induction were calculated using the equations: […]

For `CC(C)CCC[C@@H](C)[C@H]1CCC2C3CCC4C[C@@H](O[C@@H]5O[C@H](COS(=O)(=O)[O-])[C@@H](O[C@H]6O[C@H](COS(=O)(=O)[O-])[C@@H](O[C@H]7O[C@H](COS(=O)(=O)[O-])[C@@H](O[C@H]8O[C@H](COS(=O)(=O)[O-])[C@@H](OS(=O)(=O)[O-])[C@H](OS(=O)(=O)[O-])[C@H]8OS(=O)(=O)[O-])[C@H](OS(=O)(=O)[O-])[C@H]7OS(=O)(=O)[O-])[C@H](OS(=O)(=O)[O-])[C@H]6OS(=O)(=O)[O-])[C@H](OS(=O)(=O)[O-])[C@H]5OS(=O)(=O)[O-])CC[C@]4(C)C3CC[C@@]21C.[Na+].[Na+].[Na+].[Na+].[Na+].[Na+].[Na+].[Na+].[Na+].[Na+].[Na+].[Na+].[Na+]` (some centres unmarked) [PG545], the “start of efficacious plasma concentration range” value ([1]; LL/2 model) was roughly 20 µg/mL, the “AUC0−t” value ([1]; week 1, 20 mg kg^−1) was 687 µg·h/mL and the Cmax ([1]; week 1, 20 mg kg^−1) was 23 µg/mL. For the same compound, the Tmax ([1]; week 1, 20 mg kg^−1) was 5 h, the t½ ([1]; week 1, 20 mg kg^−1) was 38 h and the “AUC0−t” value ([1]; week 1, 40 mg kg^−1) was 1713 µg·h/mL. It also gave a Cmax ([1]; week 1, 40 mg kg^−1) of 55 µg/mL, a Tmax ([1]; week 1, 40 mg kg^−1) of 3 h and a t½ ([1]; week 1, 40 mg kg^−1) of 32 h. The “AUC0−t” value ([1]; week 1, 60 mg kg^−1) was 2666 µg·h/mL, the Cmax ([1]; week 1, 60 mg kg^−1) was 79 µg/mL and the Tmax ([1]; week 1, 60 mg kg^−1) was 5 h. For the same compound, the t½ ([1]; week 1, 60 mg kg^−1) was 39 h, the “AUC0−t” value ([1]; week 2, 20 mg kg^−1) was 663 µg·h/mL and the Cmax ([1]; week 2, 20 mg kg^−1) was 27 µg/mL. The Tmax ([1]; week 2, 20 mg kg^−1) was 4 h, the t½ ([1]; week 2, 20 mg kg^−1) was 31 h and the “AUC0−t” value ([1]; week 2, 40 mg kg^−1) was 1781 µg·h/mL. The Cmax ([1]; week 2, 40 mg kg^−1) was 71 µg/mL, the Tmax ([1]; week 2, 40 mg kg^−1) was 4 h and the t½ ([1]; week 2, 40 mg kg^−1) was 28 h. For the same compound, the “AUC0−t” value ([1]; week 2, 60 mg kg^−1) was 3056 µg·h/mL, the Cmax ([1]; week 2, 60 mg kg^−1) was 94 µg/mL and the Tmax ([1]; week 2, 60 mg kg^−1) was 4 h. The t½ ([1]; week 2, 60 mg kg^−1) was 35 h and the “inhibition of CD31 staining” value [2] was “Significant inhibition of CD31 staining”.
